The nature of experiment [1]: Luminescence-based cell-based high throughput dose response assay to identify activators of the DAF-12 from the parasite S. stercoralis (ssDAF-12). Type of experiment: functional.
The subject of a further experiment is Vero. Kind of experiment: cells. The class given is functional. To be noted: Chlorocebus sabaeus.
The nature of experiment [2]: HepG2 cell cytotoxicity, dose response, cytotoxicity control, ATP luminescence, cherry-pick, activator set 2 (AID 1053143). Type of experiment: functional, cell-based.
Another experiment concerns INS1. Description: beta cell apoptosis inhibitors, cytokine rescue, dose response, luminescence, retest (AID 449756).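 Note: cell death triggered by IL-1 beta plus TNF-alpha plus IFN-gamma mixture; protective hits raise ATP signal compared with cytokine alone wells.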 Type of experiment: functional, cell-based. To be noted: Rattus norvegicus.
The nature of experiment [3]: inhibitors of HIV Env-driven cell fusion, dose response, cherry-pick (AID 652057). The class given is functional, cell-based.
Experiment [4] can be described thus: inhibitors of clade B AD8 Env fusion, dose response, cell-based, cherry-pick (AID 652062).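 Note: luciferase signal from cell-cell fusion driven by HIV-1 clade B AD8 Env; potency is for inhibitors of fusion seen as a drop in luminescence.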 The class given is functional.
A short description of experiment [5]: ZM109 Env clade C HIV-1 fusion inhibitors, dose response, HeLa effector, CEM target cells, luciferase, cherry-pick (AID 652058). Type of experiment: functional, cell-based.
Experiment [6] in a line: off-target signal loss in HeLa-CEM21 co-culture – HeLa F-luc CTL cells, cherry-picked, counter-screen for HIV-1 Env fusion inhibitor project, dose response (AID 652040).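 Note: potency for signal decrease marking cytotoxic or nonspecific inhibition.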 Type of experiment: functional, cell-based. A general note: The purpose of a counterscreen is to sort out artefacts and off-target activity.
Experiment [7] in a line: CEM21 lymphoblast cell cytotoxicity, dose response, cytotoxicity control for viral fusion inhibitor project, CellTiter-Glo luminescence, cherry-picked (AID 652042).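 Note: potency for signal decrease meaning cytotoxicity.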 Type of experiment: functional, cell-based. (In general: ATP-based viability assays read luminescence as a measure of living cells.)
The nature of experiment [8]: HepG2 cell cytotoxicity, dose response, cytotoxicity control, cherry-picked samples (AID 1159577). The class given is functional, cell-based.
Experiment [9] can be described thus: HEK293T cytotoxicity, dose response, cytotoxicity control for miR-122 modulator project, cell-based, activator set, cherry-pick (AID 720690).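 Note: HEK293T human cells scored for general mammalian cytotoxicity.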 Type of experiment: functional.
Experiment [10] is described as follows: miR-122 activators in hepatoma reporter cells, dose response, cell-based, Huh7 psiCHECK-miR122, Renilla luciferase, cherry-picked (AID 651956).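 Note: huh7 hepatoma cells stably carrying a psiCHECK-2 miR-122 sensor plasmid; renilla luciferase signal reporting endogenous miR-122 activity after 48 h compound exposure.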 The class given is functional.
Experiment [11] can be described thus: P. falciparum Dd2 growth inhibitors, dose response, SYBR Green, cherry-picked samples (AID 1159567). Type of experiment: functional, cell-based.
Experiment [12] is described as follows: HEK293T cytotoxicity, dose response, cytotoxicity control for miR-122 modulator project, cell-based, inhibitor set, cherry-pick, set 2 (AID 720697). Type of experiment: functional.
For another experiment, the target named is Albumin (Bos taurus, UniProt P02769). Kind of experiment: Counterscreen for inhibitors of T-cell receptor (TCR)-CD3 interaction: Fluorescence-based biochemical high throughput dose response assay to identify inhibitors of T-cell receptor (TCR)-CD3 interaction using a TAMRA-labeled BSA probe. Type of experiment: functional.
Experiment [13] in a line: NIH-3T3 fibroblast cytotoxicity, dose response, cytotoxicity control, cell-based, fluorescence, Alamar Blue, secondary assay (AID 2327).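 Note: NIH-3T3 mouse fibroblasts cultured with fluconazole at 8 µg/mL.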 The class given is functional. Background: Alamar Blue is a resazurin reagent that responds to reducing activity.
A short description of experiment [14]: C. albicans growth with fluconazole, confirmation, fluorescence, retest (AID 2467). The class given is functional, cell-based.

Each structure is given as a SMILES string. Calls of active or inactive are those of the source. Some results are limits rather than exact numbers.

Albumin, sequence (P02769 whole entry): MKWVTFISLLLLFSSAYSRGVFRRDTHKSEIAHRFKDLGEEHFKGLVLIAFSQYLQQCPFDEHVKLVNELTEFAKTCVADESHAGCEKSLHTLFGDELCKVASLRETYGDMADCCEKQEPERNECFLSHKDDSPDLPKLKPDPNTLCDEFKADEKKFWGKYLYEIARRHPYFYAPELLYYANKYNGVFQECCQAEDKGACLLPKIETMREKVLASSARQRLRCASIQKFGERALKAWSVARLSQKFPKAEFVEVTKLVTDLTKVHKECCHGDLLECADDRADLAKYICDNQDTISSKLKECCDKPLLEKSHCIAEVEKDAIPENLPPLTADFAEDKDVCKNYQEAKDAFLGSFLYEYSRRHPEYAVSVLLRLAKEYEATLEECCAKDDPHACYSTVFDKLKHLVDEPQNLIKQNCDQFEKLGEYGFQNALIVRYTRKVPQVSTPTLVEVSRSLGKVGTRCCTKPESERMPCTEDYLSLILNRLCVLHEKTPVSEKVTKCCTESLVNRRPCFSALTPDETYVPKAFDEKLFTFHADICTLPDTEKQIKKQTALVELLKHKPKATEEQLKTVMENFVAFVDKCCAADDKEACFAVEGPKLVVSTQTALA

In the case of `CC(C)(C)C1CCC(=NN=C(S)Nc2cccnc2)CC1` (configuration not stated), the IC50 in experiment [1] is > 67.5 µM (inactive).
Consider `COc1ccc2c(c1)c(/C=N/Nc1nc3ccccc3[nH]1)c(C)n2C`, for which, in the experiment on Vero, the CC50 was 13.4 µM (active). Also, the values for the AC50 (in experiment [2]; in the experiment on INS1) were 26 µM (active) and 10.2 µM (active), respectively.
Turning to `C[C@H](CO)N1C[C@H](C)[C@H](CN(C)S(=O)(=O)c2ccccc2)Oc2ccc(NC(=O)NC3CCCCC3)cc2CC1=O`, the AC50 is 1.59 µM (active) in experiment [3]; 4.13 µM (active) in [4]; 0.98 µM (active) in experiment [5]; 2.01 µM (active) in [6]; 46.9 µM (active) in [7].
Consider `Cc1cccc(-c2ccc([C@@H]3[C@H](CO)N4CCCCN(CCC(F)(F)F)C[C@@H]34)cc2)c1`, for which the AC50 in experiment [8] was 10.7 µM (active); in [9] it was 17.7 µM (active); in experiment [10], 14.9 µM (active); in [11] it was 0.978 µM (active); in experiment [12], 28.8 µM (active).
For `COc1cccc(C(=O)NNC(=O)c2ccc3ccccc3c2O)c1`, the IC50 on Albumin is > 94.1 µM (inactive). The EC50 in [13] was > 150 µM (inconclusive); in experiment [14] it was > 38 µM (not active).

As a reminder, the IC50 is the concentration needed to halve the response being measured. A word on the CC50: it is the concentration that lowers cell viability or growth by half. For orientation: AC50 means the concentration giving half of the maximal activity seen. What is called EC50 is the concentration at which the effect is half-maximal.

Values taken from ChEMBL document CHEMBL1201862, “PubChem BioAssay data set” (2004).
